Like-named read-outs stand apart in the source and are kept apart here. Where a SMILES comes first, the peptide text is derived from it. Bridges are numbered along the chain shown (N, C = ends). [ ]: non-standard residue; d: D form. R8 = C=CCCCCCC[C@@](C)(N)C(=O)O; S5 = C=CCCC[C@](C)(N)C(=O)O
Tests used:
[1] = molecular target: T1, MDMX (Homo sapiens, UniProt O15151); test: Competitive fluorescence polarization assay for MDMX; format: binding; details: competitive FP assay
T1 sequence (O15151 1-125): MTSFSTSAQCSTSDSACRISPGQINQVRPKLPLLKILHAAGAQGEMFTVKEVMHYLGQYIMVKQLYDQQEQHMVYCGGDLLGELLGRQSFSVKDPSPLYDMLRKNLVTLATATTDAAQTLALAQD

[2] = system: SJSA-1 cells; test: Cell lysis by peptidomimetic macrocycles (LDH release); format: cell-based; details: 1 h at 37C
[3] = system: Caspase 3; test: Caspase 3 detection assay in SJSA1 cells; format: cell-based; details: 48 h, Caspase 3 activation over DMSO-treated cells; for caspase 0.3 uM: 0.3 uM peptide; for caspase 3 uM: 3 uM peptide; for caspase 10 uM: 10 uM peptide; for caspase 30 uM: 30 uM peptide; for caspase 1 uM: 1 uM peptide
[4] = molecular target: MDM2 (Homo sapiens, UniProt Q00987); test: Competitive fluorescence polarization assay for MDM2; format: binding; details: competitive FP assay, MDM2
MDM2, sequence (Q00987 1-125): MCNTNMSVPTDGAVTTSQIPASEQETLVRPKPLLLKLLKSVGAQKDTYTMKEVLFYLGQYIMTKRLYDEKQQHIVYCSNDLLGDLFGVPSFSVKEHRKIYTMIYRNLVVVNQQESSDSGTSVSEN

| SMILES | IC50 ([1]; read-out: IC50 (MDMX)) [nM] | Ki ([1]; read-out: Ki (MDMX)) [nM] | IC50 ([4]; read-out: IC50 (MDM2)) [nM] | Ki ([4]; read-out: Ki (MDM2)) [nM] | 6.25 uM % Lysed cells (1 h LDH) [2] [%] | 25 uM % Lysed cells (1 h LDH) [2] [%] | 50 uM % Lysed cells (1 h LDH) [2] [%] | caspase 0.3 uM [3] | caspase 3 uM [3] | caspase 10 uM [3] | caspase 30 uM [3] | IC50 ([1]; IC50 (MDMX)) [nM] | Ki ([1]; Ki (MDMX)) [nM] | caspase 1 uM [3] | IC50 ([4]; IC50 (MDM2)) [nM] | Ki ([4]; Ki (MDM2)) [nM] |
| --- | --- | --- | --- | --- | --- | --- | --- | --- | --- | --- | --- | --- | --- | --- | --- | --- |
| CC(=O)N[C@@H](CCC(=O)O)C(=O)N[C@H](C(=O)N[C@@H](Cc1ccccc1)C(=O)N[C@]1(C)CCCCCCC=CCCC[C@@](C)(C(=O)N[C@@H](C)C(=O)N[C@@H](C)C(=O)N[C@@H](C)C(=O)N[C@@H](C)C(=O)N[C@@H](C)C(=O)N[C@H](C)C(N)=O)NC(=O)[C@H](CC(C)C)NC(=O)[C@H](CCC(N)=O)NC(=O)[C@H](C)NC(=O)[C@H](Cc2c[nH]c3ccccc23)NC(=O)[C@H](Cc2ccc(O)cc2)NC(=O)[C@H](CCC(=O)O)NC1=O)[C@@H](C)O (single isomer, unassigned) [compound 341] |  |  |  |  | 0 | 0 | 0 | 3 | 11 | 14 | 21 | 10 to 100 | < 10 | 8 | 10 to 100 | < 10 |
| CC(=O)N[C@@H](CC(C)C)C(=O)N[C@H](C(=O)N[C@@H](Cc1ccccc1)C(=O)N[C@]1(C)CCCCCCC=CCCC[C@@](C)(C(=O)N[C@@H](C)C(=O)N[C@@H](C)C(=O)N[C@@H](C)C(=O)N[C@@H](C)C(=O)N[C@@H](C)C(=O)N[C@@H](C)C(=O)N[C@H](C)C(N)=O)NC(=O)[C@H](CC(C)C)NC(=O)[C@H](CCC(N)=O)NC(=O)[C@H](C)NC(=O)[C@H](Cc2c[nH]c3ccccc23)NC(=O)[C@H](Cc2ccc(O)cc2)NC(=O)[C@H](CCC(=O)O)NC1=O)[C@@H](C)O (single isomer, unassigned) [compound 343] |  |  |  |  | 0 | 0 | 0 | 1 | 2 | 5 | 29 | 10 to 100 | < 10 | 1 | 10 to 100 | < 10 |
| CC(=O)N[C@@H](CC(C)C)C(=O)N[C@H](C(=O)N[C@@H](Cc1ccccc1)C(=O)N[C@]1(C)CCCCCCC=CCCC[C@@](C)(C(=O)N[C@@H](C)C(=O)N[C@@H](C)C(=O)N[C@@H](C)C(=O)N[C@@H](C)C(=O)N[C@@H](C)C(=O)N[C@H](C)C(N)=O)NC(=O)[C@H](CC2CCC2)NC(=O)[C@H](CCC(N)=O)NC(=O)[C@H](C)NC(=O)[C@H](Cc2c[nH]c3ccccc23)NC(=O)[C@H](Cc2ccc(O)cc2)NC(=O)[C@H](CCC(=O)O)NC1=O)[C@@H](C)O (single isomer, unassigned) [compound 347] | 10 to 100 | 10 to 100 | 10 to 100 | < 10 | 0 | 0 | 0 | 2 | 5 | 8 | 29 |  |  | 3 |  |  |
| CC(=O)N[C@@H](C)C(=O)N[C@@H](CC(C)C)C(=O)N[C@H](C(=O)N[C@@H](Cc1ccccc1)C(=O)N[C@]1(C)CCCCCCC=CCCC[C@@](C)(C(=O)N[C@@H](CO)C(=O)N[C@@H](C)C(=O)N[C@@H](C)C(=O)N[C@H](C)C(N)=O)NC(=O)[C@H](CC2CCC2)NC(=O)[C@H](CCC(N)=O)NC(=O)[C@H](C)NC(=O)[C@H](Cc2c[nH]c3ccccc23)NC(=O)[C@H](Cc2ccc(O)cc2)NC(=O)[C@H](CCC(=O)O)NC1=O)[C@@H](C)O (single isomer, unassigned) [compound 355] | 10 to 100 | < 10 | < 10 | < 10 | 0 | 0 | 0 | 1 | 11 | 13 | 30 |  |  | 4 |  |  |
| CC(=O)N[C@@H](C)C(=O)N[C@@H](C)C(=O)N[C@@H](CC(C)C)C(=O)N[C@H](C(=O)N[C@@H](Cc1ccccc1)C(=O)N[C@]1(C)CCCCCCC=CCCC[C@@](C)(C(=O)N[C@@H](CO)C(=O)N[C@@H](C)C(=O)N[C@@H](C)C(=O)N[C@@H](C)C(=O)N[C@H](C)C(N)=O)NC(=O)[C@H](CC2CCC2)NC(=O)[C@H](CCC(N)=O)NC(=O)[C@H](C)NC(=O)[C@H](Cc2c[nH]c3ccccc23)NC(=O)[C@H](Cc2ccc(O)cc2)NC(=O)[C@H](CCC(=O)O)NC1=O)[C@@H](C)O (single isomer, unassigned) [compound 359] | 10 to 100 | 10 to 100 | < 10 | < 10 | 0 | 0 | 0 | 3 | 11 | 13 | 23 |  |  | 9 |  |  |

More lines, main results first:

| IC50 ([1]; read-out: IC50 (MDMX)) [nM] | Ki ([1]; read-out: Ki (MDMX)) [nM] | IC50 ([4]; read-out: IC50 (MDM2)) [nM] | Ki ([4]; read-out: Ki (MDM2)) [nM] | SMILES | 6.25 uM % Lysed cells (1 h LDH) [2] [%] | 25 uM % Lysed cells (1 h LDH) [2] [%] | 50 uM % Lysed cells (1 h LDH) [2] [%] | caspase 0.3 uM [3] | caspase 3 uM [3] | caspase 10 uM [3] | caspase 30 uM [3] | IC50 ([1]; IC50 (MDMX)) [nM] | Ki ([1]; Ki (MDMX)) [nM] | caspase 1 uM [3] | IC50 ([4]; IC50 (MDM2)) [nM] | Ki ([4]; Ki (MDM2)) [nM] |
| --- | --- | --- | --- | --- | --- | --- | --- | --- | --- | --- | --- | --- | --- | --- | --- | --- |
| 100 to 1000 | 10 to 100 | < 10 | < 10 | CC(=O)N[C@@H](CC(C)C)C(=O)N[C@H](C(=O)N[C@@H](Cc1ccccc1)C(=O)N[C@]1(C)CCCCCCC=CCCC[C@@](C)(C(=O)N[C@@H](C)C(=O)N[C@@H](C)C(=O)N[C@@H](Cc2ccccc2)C(=O)N[C@H](C)C(N)=O)NC(=O)[C@H](CC(C)C)NC(=O)[C@H](CCC(N)=O)NC(=O)[C@H](C)NC(=O)[C@H](Cc2c[nH]c3ccccc23)NC(=O)[C@H](Cc2ccc(O)cc2)NC(=O)[C@H](CCC(=O)O)NC1=O)[C@@H](C)O (single isomer, unassigned) [compound 218] | 0 | −4 | 1 | 1 | 2 | 8 | 18 |  |  |  |  |  |
| 10 to 100 | 10 to 100 | < 10 | < 10 | CC(=O)N[C@@H](CC(C)C)C(=O)N[C@H](C(=O)N[C@@H](Cc1ccccc1)C(=O)N[C@]1(C)CCCCCCC=CCCC[C@@](C)(C(=O)N[C@@H](C)C(=O)N[C@@H](C)C(=O)N[C@H](C(=O)N[C@H](C)C(N)=O)C(C)C)NC(=O)[C@H](CC(C)C)NC(=O)[C@H](CCC(N)=O)NC(=O)[C@H](C)NC(=O)[C@H](Cc2c[nH]c3ccccc23)NC(=O)[C@H](Cc2ccc(O)cc2)NC(=O)[C@H](CCC(=O)O)NC1=O)[C@@H](C)O (single isomer, unassigned) [compound 221] | 3 | 3 | 11 | 1 | 3 | 6 | 12 |  |  |  |  |  |
| 10 to 100 | < 10 | < 10 | < 10 | CC(=O)N[C@@H](C)C(=O)N[C@@H](CC(C)C)C(=O)N[C@H](C(=O)N[C@@H](Cc1ccccc1)C(=O)N[C@]1(C)CCCCCCC=CCCC[C@@](C)(C(=O)N[C@@H](CO)C(=O)N[C@@H](C)C(=O)N[C@@H](C)C(=O)N[C@@H](C)C(=O)N[C@H](C)C(N)=O)NC(=O)[C@H](CC2CCC2)NC(=O)[C@H](CCC(N)=O)NC(=O)[C@H](C)NC(=O)[C@H](Cc2c[nH]c3ccccc23)NC(=O)[C@H](Cc2ccc(O)cc2)NC(=O)[C@H](CCC(=O)O)NC1=O)[C@@H](C)O (single isomer, unassigned) [compound 357] | 0 | 0 | 0 | 2 | 11 | 15 | 23 |  |  | 7 |  |  |
| 100 to 1000 | 10 to 100 | 10 to 100 | < 10 | CC(=O)N[C@@H](CC(C)C)C(=O)N[C@H](C(=O)N[C@@H](Cc1ccccc1)C(=O)N[C@]1(C)CCCCCCC=CCCC[C@@](C)(C(=O)N[C@@H](CO)C(=O)N[C@@H](C)C(=O)N[C@@H](CC(C)C)C(N)=O)NC(=O)[C@H](CC(C)C)NC(=O)[C@H](CCC(N)=O)NC(=O)[C@H](C)NC(=O)[C@H](Cc2c[nH]c3ccccc23)NC(=O)[C@H](Cc2ccc(O)cc2)NC(=O)[C@H](C)NC1=O)[C@@H](C)O [compound 4] (Ac-LTF[R8]AYWAQL[S5]SAL-NH2; staple 4-11) | −2 | 1 | 2 |  | 9 | 37 | 35 |  |  |  |  |  |
| 100 to 1000 | 10 to 100 | 100 to 1000 | 10 to 100 | CC[C@H](C)[C@H](NC(=O)[C@H](C)NC(=O)[C@H](CO)NC(=O)[C@]1(C)CCCC=CCCCCCC[C@@](C)(NC(=O)[C@H](Cc2ccccc2)NC(=O)[C@@H](NC(=O)[C@H](CC(C)C)NC(C)=O)[C@@H](C)O)C(=O)N[C@@H](C)C(=O)N[C@@H](Cc2ccc(O)cc2)C(=O)N[C@@H](Cc2c[nH]c3ccccc23)C(=O)N[C@@H](C)C(=O)N[C@@H](CCC(N)=O)C(=O)N[C@@H](CC(C)C)C(=O)N1)C(N)=O [compound 8] (Ac-LTF[R8]AYWAQL[S5]SAI-NH2; staple 4-11) | −1 | 1 | 1 |  | 1 | 19 | 25 |  |  |  |  |  |

— patent publication US8927500B2, “Peptidomimetic macrocycles” (Aileron Therapeutics, Inc., priority 2012, dated 2015)
